The values that follow are results of earlier work, collected in patent publication US20190358206A1, “TOPICAL FORMULATIONS OF BIARYL HETEROCYCLIC COMPOUNDS AND METHODS OF USE THEREOF” (Melinta Subsidiary Corp., priority 2016, published 2019).

The test system of this series is intracellular S. aureus (including linezolid-resistant), Listeria monocytogenes and Legionella pneumophila. Particulars: cited from earlier work.

In the case of `CC(=O)NC[C@H]1CN(c2ccc(-c3ccc(CNCc4cnn[nH]4)cc3)c(F)c2)C(=O)O1` [Radezolid, N-[3-(2-Fluoro-4′-{[(1H-[1,2,3]triazol-4-ylmethyl)-amino]-methyl}-biphenyl-4-yl)-2-oxo-oxazolidin-5-(S)-ylmethyl]-acetamide], the intracellular killing entry is “kills intracellular S. aureus (including linezolid-resistant), Listeria monocytogenes and Legionella pneumophila”.
